Data as given in patent publication US9113629B2, “4-amino-6-(4-substituted-phenyl)-picolinates and 6-amino-2-(4-substituted-phenyl)-pyrimidine-4-carboxylates and their use as herbicides” (DOW AGROSCIENCES LLC, priority 2013, dated 2015).

Tested on: Key Grass and Sedge Weeds as well as Grass Crops
Assay: Post-emergent Test II herbicidal activity (Table 6)
Format: in vivo
Settings: post-emergence, 336 h, CYPES: yellow nutsedge (Cyperus esculentus), 70 g ai/ha, read-out: Visual Growth Reduction (%) 14 Days After Application, CYPES
How it was run: (§1)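 Plants grown in Metro-Mix 360 (pH 6.0–6.8) in a greenhouse (~15 h photoperiod, 23–29 °C day) to first or second true leaf stage, then sprayed with compound in acetone/DMSO/aqueous crop-oil-surfactant carrier at 187 L/ha by track sprayer. Injury visually scored 0–100% versus untreated plants after 14 d.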

Row | SMILES | pest or weed control at 70 g/ha [%]
1 | COc1c(N)nc(-c2ccc(C(F)(F)F)c(F)c2F)nc1C(=O)O [Compound 76] | 0 to 29

Same assay, conditions: post-emergence, 336 h, CYPES: yellow nutsedge (Cyperus esculentus), 140 g ai/ha, read-out: Visual Growth Reduction (%) 14 Days After Application, CYPES

Row | SMILES | pest or weed control at 140 g/ha [%]
2 | COc1c(N)nc(-c2ccc(C(F)(F)F)c(F)c2F)nc1C(=O)O [Compound 76] | 30 to 44

Same assay, conditions: post-emergence, 336 h, DIGSA: crabgrass (Digitaria sanguinalis), 70 g ai/ha, read-out: Visual Growth Reduction (%) 14 Days After Application, DIGSA

Row | SMILES | pest or weed control at 70 g/ha [%]
3 | COc1c(N)nc(-c2ccc(C(F)(F)F)c(F)c2F)nc1C(=O)O [Compound 76] | 75 to 84

Same assay, conditions: post-emergence, 336 h, DIGSA: crabgrass (Digitaria sanguinalis), 140 g ai/ha, read-out: Visual Growth Reduction (%) 14 Days After Application, DIGSA

Row | SMILES | pest or weed control at 140 g/ha [%]
4 | COc1c(N)nc(-c2ccc(C(F)(F)F)c(F)c2F)nc1C(=O)O [Compound 76] | 85 to 94

Same assay, conditions: post-emergence, 336 h, ECHCG: barnyardgrass (Echinochloa crus-galli), 70 g ai/ha, read-out: Visual Growth Reduction (%) 14 Days After Application, ECHCG

Row | SMILES | pest or weed control at 70 g/ha [%]
5 | COc1c(N)nc(-c2ccc(C(F)(F)F)c(F)c2F)nc1C(=O)O [Compound 76] | 85 to 94

Same assay, conditions: post-emergence, 336 h, ECHCG: barnyardgrass (Echinochloa crus-galli), 140 g ai/ha, read-out: Visual Growth Reduction (%) 14 Days After Application, ECHCG

Row | SMILES | pest or weed control at 140 g/ha [%]
6 | COc1c(N)nc(-c2ccc(C(F)(F)F)c(F)c2F)nc1C(=O)O [Compound 76] | 95 to 100

Same assay, conditions: post-emergence, 336 h, ORYSA: rice (Oryza sativa), crop, 70 g ai/ha, read-out: Visual Growth Reduction (%) 14 Days After Application, ORYSA

Row | SMILES | pest or weed control at 70 g/ha [%]
7 | COc1c(N)nc(-c2ccc(C(F)(F)F)c(F)c2F)nc1C(=O)O [Compound 76] | 0 to 29

Same assay, conditions: post-emergence, 336 h, ORYSA: rice (Oryza sativa), crop, 140 g ai/ha, read-out: Visual Growth Reduction (%) 14 Days After Application, ORYSA

Row | SMILES | pest or weed control at 140 g/ha [%]
8 | COc1c(N)nc(-c2ccc(C(F)(F)F)c(F)c2F)nc1C(=O)O [Compound 76] | 30 to 44

Same assay, conditions: post-emergence, 336 h, SETFA: giant foxtail (Setaria faberi), 70 g ai/ha, read-out: Visual Growth Reduction (%) 14 Days After Application, SETFA

Row | SMILES | pest or weed control at 70 g/ha [%]
9 | COc1c(N)nc(-c2ccc(C(F)(F)F)c(F)c2F)nc1C(=O)O [Compound 76] | 45 to 59

Same assay, conditions: post-emergence, 336 h, SETFA: giant foxtail (Setaria faberi), 140 g ai/ha, read-out: Visual Growth Reduction (%) 14 Days After Application, SETFA

Row | SMILES | pest or weed control at 140 g/ha [%]
10 | COc1c(N)nc(-c2ccc(C(F)(F)F)c(F)c2F)nc1C(=O)O [Compound 76] | 60 to 74

Same assay, conditions: post-emergence, 336 h, SORVU: grain sorghum (Sorghum vulgare), 70 g ai/ha, read-out: Visual Growth Reduction (%) 14 Days After Application, SORVU

Row | SMILES | pest or weed control at 70 g/ha [%]
11 | COc1c(N)nc(-c2ccc(C(F)(F)F)c(F)c2F)nc1C(=O)O [Compound 76] | 45 to 59

Same assay, conditions: post-emergence, 336 h, SORVU: grain sorghum (Sorghum vulgare), 140 g ai/ha, read-out: Visual Growth Reduction (%) 14 Days After Application, SORVU

Row | SMILES | pest or weed control at 140 g/ha [%]
12 | COc1c(N)nc(-c2ccc(C(F)(F)F)c(F)c2F)nc1C(=O)O [Compound 76] | 45 to 59

Same assay, conditions: post-emergence, 336 h, TRZSS (wheat, Triticum aestivum), crop, 70 g ai/ha, read-out: Visual Growth Reduction (%) 14 Days After Application, TRZSS

Row | SMILES | pest or weed control at 70 g/ha [%]
13 | COc1c(N)nc(-c2ccc(C(F)(F)F)c(F)c2F)nc1C(=O)O [Compound 76] | 45 to 59

Same assay, conditions: post-emergence, 336 h, TRZSS (wheat, Triticum aestivum), crop, 140 g ai/ha, read-out: Visual Growth Reduction (%) 14 Days After Application, TRZSS

Row | SMILES | pest or weed control at 140 g/ha [%]
14 | COc1c(N)nc(-c2ccc(C(F)(F)F)c(F)c2F)nc1C(=O)O [Compound 76] | 45 to 59

Same assay, conditions: post-emergence, 336 h, ZEAMX: maize, corn (Zea mays), crop, 70 g ai/ha, read-out: Visual Growth Reduction (%) 14 Days After Application, ZEAMX

Row | SMILES | pest or weed control at 70 g/ha [%]
15 | COc1c(N)nc(-c2ccc(C(F)(F)F)c(F)c2F)nc1C(=O)O [Compound 76] | 0 to 29

Same assay, conditions: post-emergence, 336 h, ZEAMX: maize, corn (Zea mays), crop, 140 g ai/ha, read-out: Visual Growth Reduction (%) 14 Days After Application, ZEAMX

Row | SMILES | pest or weed control at 140 g/ha [%]
16 | COc1c(N)nc(-c2ccc(C(F)(F)F)c(F)c2F)nc1C(=O)O [Compound 76] | 95 to 100

Tested on: not given
Assay: not given
Settings: not given

Row | melting point [°C] | SMILES
17 | 169 to 170 | COc1c(N)nc(-c2ccc(C(F)(F)F)c(F)c2F)nc1C(=O)O [Compound 76]

Tested on: Key Broadleaf Weed and Crop Species
Assay: Post-emergent Test II herbicidal activity (Table 5)
Format: in vivo
Settings: post-emergence, 336 h; ABUTH: velvetleaf (Abutilon theophrasti); application rate 70 g ai/ha; 14 days after application; read-out: Visual Growth Reduction (%) 14 Days After Application, ABUTH
How it was run: as §1

Row | SMILES | pest or weed control at 70 g/ha [%]
18 | COc1c(N)nc(-c2ccc(C(F)(F)F)c(F)c2F)nc1C(=O)O [Compound 76] | 95 to 100

Same assay, conditions: post-emergence, 336 h; ABUTH: velvetleaf (Abutilon theophrasti); application rate 140 g ai/ha; 14 days after application; read-out: Visual Growth Reduction (%) 14 Days After Application, ABUTH

Row | SMILES | pest or weed control at 140 g/ha [%]
19 | COc1c(N)nc(-c2ccc(C(F)(F)F)c(F)c2F)nc1C(=O)O [Compound 76] | 95 to 100

Same assay, conditions: post-emergence, 336 h; AMARE: redroot pigweed (Amaranthus retroflexus); application rate 70 g ai/ha; 14 days after application; read-out: Visual Growth Reduction (%) 14 Days After Application, AMARE

Row | SMILES | pest or weed control at 70 g/ha [%]
20 | COc1c(N)nc(-c2ccc(C(F)(F)F)c(F)c2F)nc1C(=O)O [Compound 76] | 95 to 100

Same assay, conditions: post-emergence, 336 h; AMARE: redroot pigweed (Amaranthus retroflexus); application rate 140 g ai/ha; 14 days after application; read-out: Visual Growth Reduction (%) 14 Days After Application, AMARE

Row | SMILES | pest or weed control at 140 g/ha [%]
21 | COc1c(N)nc(-c2ccc(C(F)(F)F)c(F)c2F)nc1C(=O)O [Compound 76] | 95 to 100

Same assay, conditions: post-emergence, 336 h; BRSNN: oilseed-rape, canola (Brassica napus); application rate 70 g ai/ha; 14 days after application; read-out: Visual Growth Reduction (%) 14 Days After Application, BRSNN

Row | SMILES | pest or weed control at 70 g/ha [%]
22 | COc1c(N)nc(-c2ccc(C(F)(F)F)c(F)c2F)nc1C(=O)O [Compound 76] | 85 to 94

Same assay, conditions: post-emergence, 336 h; BRSNN: oilseed-rape, canola (Brassica napus); application rate 140 g ai/ha; 14 days after application; read-out: Visual Growth Reduction (%) 14 Days After Application, BRSNN

Row | SMILES | pest or weed control at 140 g/ha [%]
23 | COc1c(N)nc(-c2ccc(C(F)(F)F)c(F)c2F)nc1C(=O)O [Compound 76] | 95 to 100

Same assay, conditions: post-emergence, 336 h; CHEAL: lambsquarters (Chenopodium album); application rate 70 g ai/ha; 14 days after application; read-out: Visual Growth Reduction (%) 14 Days After Application, CHEAL

Row | SMILES | pest or weed control at 70 g/ha [%]
24 | COc1c(N)nc(-c2ccc(C(F)(F)F)c(F)c2F)nc1C(=O)O [Compound 76] | 85 to 94

Same assay, conditions: post-emergence, 336 h; CHEAL: lambsquarters (Chenopodium album); application rate 140 g ai/ha; 14 days after application; read-out: Visual Growth Reduction (%) 14 Days After Application, CHEAL

Row | SMILES | pest or weed control at 140 g/ha [%]
25 | COc1c(N)nc(-c2ccc(C(F)(F)F)c(F)c2F)nc1C(=O)O [Compound 76] | 95 to 100

Same assay, conditions: post-emergence, 336 h; EPHHL: wild poinsettia (Euphorbia heterophylla); application rate 70 g ai/ha; 14 days after application; read-out: Visual Growth Reduction (%) 14 Days After Application, EPHHL

Row | SMILES | pest or weed control at 70 g/ha [%]
26 | COc1c(N)nc(-c2ccc(C(F)(F)F)c(F)c2F)nc1C(=O)O [Compound 76] | 95 to 100

Same assay, conditions: post-emergence, 336 h; HELAN: sunflower (Helianthus annuus); application rate 70 g ai/ha; 14 days after application; read-out: Visual Growth Reduction (%) 14 Days After Application, HELAN

Row | SMILES | pest or weed control at 70 g/ha [%]
27 | COc1c(N)nc(-c2ccc(C(F)(F)F)c(F)c2F)nc1C(=O)O [Compound 76] | 85 to 94

Same assay, conditions: post-emergence, 336 h; HELAN: sunflower (Helianthus annuus); application rate 140 g ai/ha; 14 days after application; read-out: Visual Growth Reduction (%) 14 Days After Application, HELAN

Row | SMILES | pest or weed control at 140 g/ha [%]
28 | COc1c(N)nc(-c2ccc(C(F)(F)F)c(F)c2F)nc1C(=O)O [Compound 76] | 95 to 100

Same assay, conditions: post-emergence, 336 h; VIOTR: wild pansy (Viola tricolor); application rate 70 g ai/ha; 14 days after application; read-out: Visual Growth Reduction (%) 14 Days After Application, VIOTR

Row | SMILES | pest or weed control at 70 g/ha [%]
29 | COc1c(N)nc(-c2ccc(C(F)(F)F)c(F)c2F)nc1C(=O)O [Compound 76] | 45 to 59

Same assay, conditions: post-emergence, 336 h; VIOTR: wild pansy (Viola tricolor); application rate 140 g ai/ha; 14 days after application; read-out: Visual Growth Reduction (%) 14 Days After Application, VIOTR

Row | SMILES | pest or weed control at 140 g/ha [%]
30 | COc1c(N)nc(-c2ccc(C(F)(F)F)c(F)c2F)nc1C(=O)O [Compound 76] | 60 to 74
